Test results from ChEMBL document CHEMBL4368885, “Quinolone-isoniazid hybrids: synthesis and preliminary in vitro cytotoxicity and anti-tuberculosis evaluation” (Medchemcomm, 2019).
In brackets after ≈: the same amount, converted by molar mass.

Experiments:
[1] = Cytotoxicity against human HeLa cells assessed as cell viability at 20 uM after 24 hrs by resazurin dye-based fluorescence assay relative to control; conditions: read-out: Activity
[2] = tested on: Mycobacterium tuberculosis; experiment: microbe, parasite or virus in culture; conditions: H37Rv
Description: Antitubercular activity against Mycobacterium tuberculosis H37Rv after 7 to 14 days by broth micro dilution method

HeLa = experiment: Cytotoxicity against human HeLa cells assessed as reduction in cell viability after 24 hrs by resazurin dye-based fluorescence assay
[3] = Intrinsic clearance in mouse liver microsomes assessed per mg protein at 1 uM by LC-MS/MS analysis; format: ADME, Microsome
[4] = Intrinsic clearance in pooled human liver microsomes assessed per mg protein at 1 uM by LC-MS/MS analysis; format: ADME, Microsome
[5] = Half life in pooled human liver microsomes at 1 uM by LC-MS/MS analysis; format: ADME, Microsome
[6] = Intrinsic clearance in rat liver microsomes assessed per mg protein at 1 uM by LC-MS/MS analysis; format: ADME, Microsome
[7] = Metabolic stability in mouse liver microsomes assessed as percentage of compound remaining at 1 uM by LC-MS/MS analysis; format: ADME, Microsome; conditions: read-out: Stability
[8] = Half life in rat liver microsomes at 1 uM by LC-MS/MS analysis; format: ADME, Microsome
[9] = Hepatic extraction ratio in rat liver microsomes at 1 uM by LC-MS/MS analysis; format: ADME, Microsome; conditions: read-out: ERH
[10] = Half life in mouse liver microsomes at 1 uM by LC-MS/MS analysis; format: ADME, Microsome
[11] = Aqueous solubility in pH 6.5 PBS at 10 to 220 uM after 20 hrs by nephelometric analysis; format: physicochemical
[12] = Metabolic stability in pooled human liver microsomes assessed as percentage of compound remaining at 1 uM by LC-MS/MS analysis; format: ADME, Microsome; conditions: read-out: Stability
[13] = Hepatic extraction ratio in mouse liver microsomes at 1 uM by LC-MS/MS analysis; format: ADME, Microsome; conditions: read-out: ERH
[14] = Metabolic stability in rat liver microsomes assessed as percentage of compound remaining at 1 uM by LC-MS/MS analysis; format: ADME, Microsome; conditions: read-out: Stability
[15] = Hepatic extraction ratio in pooled human liver microsomes at 1 uM by LC-MS/MS analysis; format: ADME, Microsome; conditions: read-out: ERH

SMILES | viability at 24 h, 20 µM [1] [%] | MIC90 [2] [µM] | also measured
C/C(=N\NC(=O)c1ccncc1)c1ccc2c(c1)c(=O)c(C(=O)NCCOCCO)cn2Cc1ccc(Br)cc1 | < 75 | 2.7 (≈ 1.64 µg/mL) | –
COCCNC(=O)c1cn(Cc2ccccc2)c2ccc(C(C)=O)cc2c1=O | < 75 | 43.4 (≈ 16.4 µg/mL) | –
C/C(=N\NC(=O)c1ccncc1)c1ccc2c(c1)c(=O)c(C(=O)NCCNCCO)cn2Cc1ccccc1 | < 75 | 2 (≈ 1.05 µg/mL) | –
NNC(=O)c1ccncc1 [ISONIAZID] | – | 0.2 (≈ 0.0274 µg/mL) | –
C/C(=N\NC(=O)c1ccncc1)c1ccc2c(c1)c(=O)c(C(=O)NCCNCCO)cn2Cc1ccc(C(F)(F)F)cc1 | < 75 | 1.8 (≈ 1.07 µg/mL) | –
CO[C@H]1/C=C/O[C@@]2(C)Oc3c(C)c(O)c4c(O)c(c(/C=N/N5CCN(C)CC5)c(O)c4c3C2=O)NC(=O)/C(C)=C\C=C\[C@H](C)[C@H](O)[C@@H](C)[C@@H](O)[C@@H](C)[C@H](OC(C)=O)[C@@H]1C [RIFAMPIN] | – | 0.06 (≈ 0.0494 µg/mL) | –
C/C(=N\NC(=O)c1ccncc1)c1ccc2c(c1)c(=O)c(C(=O)NCCNCCO)cn2Cc1ccc(Br)cc1 | < 75 | 0.8 (≈ 0.484 µg/mL) | –
CC(=O)c1ccc2c(c1)c(=O)c(C(=O)NCCNCCO)cn2Cc1ccc(Cl)cc1Cl | < 75 | 125 (≈ 59.5 µg/mL) | –
CCn1cc(C(=O)NCCCn2ccnc2)c(=O)c2cc(/C(C)=N/NC(=O)c3ccncc3)ccc21 | < 75 | 7.8 (≈ 3.79 µg/mL) | –
CC[C@H]1CN2CCc3cc(OC)c(OC)cc3[C@@H]2C[C@@H]1C[C@H]1NCCc2cc(OC)c(OC)cc21 [EMETINE] | – | – | IC50 (HeLa): 15 nM
CCn1cc(C(=O)NCCOC)c(=O)c2cc(/C(C)=N/NC(=O)c3ccncc3)ccc21 | < 75 | 0.8 (≈ 0.348 µg/mL) | CLH [3]: 35.3 µg/min; CLH [4]: 13.3 µg/min; half-life at 1 µM [5]: > 2.5 h; CLH [6]: 18.7 µg/min; remaining at 1 µM [7]: 77%; half-life at 1 µM [8]: > 2.5 h; hepatic extraction ratio at 1 µM [9]: < 0.3; half-life at 1 µM [10]: 1.33 h; solubility kinetic at 20 h [11]: 95 µM (≈ 41.4 µg/mL); remaining at 1 µM [12]: 90.6%; hepatic extraction ratio at 1 µM [13]: < 0.49; remaining at 1 µM [14]: 87%; hepatic extraction ratio at 1 µM [15]: < 0.42
CCOC(=O)c1cn(C)c2ccc(/C(C)=N/NC(=O)c3ccncc3)cc2c1=O | < 75 | 0.9 (≈ 0.353 µg/mL) | –
COCCNC(=O)c1cn(Cc2ccc(Cl)cc2Cl)c2ccc(/C(C)=N/NC(=O)c3ccncc3)cc2c1=O | < 75 | 4.8 (≈ 2.72 µg/mL) | –
CCOC(=O)c1cn(CC)c2ccc(/C(C)=N/NC(=O)c3ccncc3)cc2c1=O | < 75 | 0.2 (≈ 0.0813 µg/mL) | –
